Read-outs that look alike come from different tables or passages of the source.
Experiments:
Format in all cases: cell-based
[1] = biological target: T1, CaV2.2 (Homo sapiens, UniProt Q00975); assay: High-throughput CaV2.2/Kir2.3 FLIPR fluorescent assay; conditions: Fluo-4 FLIPR, closed or inactivated state not stated, read-out: FLIPR data CaV2.2
T1 construct: expressed in transfected cells; host or cells: unnamed doxycycline-inducible cell line
How it was run: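 Doxycycline-induced cells moved to 29 °C on assay day and were loaded with 4.4 μM Fluo-4. They were held in 2 mM KCl (closed state) or 12.5 mM KCl (inactivated state) buffer, pH 7.4, then depolarized with 130 mM KCl. Fluorescence was read 3 min on FLIPR, and IC50 was obtained from logistic fits.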

[2] = biological target: T2, CaV3.1 (Homo sapiens, UniProt O43497); assay: High-throughput CaV3.1 T-type FLIPR fluorescent assay; conditions: Fluo-4 FLIPR
T2 construct: expressed in transfected cells; host or cells: unnamed doxycycline-inducible cell line
Protocol: Cells were plated in 384-well, clear-bottom, black-walled, poly-D-lysine coated plates (Becton Dickinson, Franklin Lake, N.J.) 2 days prior to use in the FLIPR assay. 100 μL of cells (2.0×10^6 cell/mL) containing doxycyline (Sigma-Aldrich, 1.5 μg/mL; to induce channel expression) were added to each well using a Multidrop (Thermo Scientific, Waltham, Mass.) and were maintained in 5% CO2 incubator at 37° C. On the morning of the assay, cells were transferred to a 5% CO2 incubator at 29° C.
Cells were washed with a wash buffer containing (in mM): 118 NaCl, 18.4 HEPES, 11.7 D-glucose, 0.05 CaCl2, 0.5 MgSO4, 1 KCl, and 1.2 KH2PO4, with the pH adjusted to 7.2 with NaOH. 4.4 μM of the fluorescent indicator dye, Fluo-4 (Invitrogen), prepared in pluronic acid
(Sigma-Aldrich), was loaded into the wells and incubated for 45 minutes at 29° C. in 5% CO2. Cells were then rinsed with the following low Ca^2+ buffer (in mM): 0.34 Na2HPO4, 4.2 NaHCO3, 0.44 KH2PO4, 0.41 MgSO4, 0.49 MgCl2-6H2O, 20 HEPES, 5.5 D-Glucose, 137 NaCl, 5.3 KCl, and 0.001 CaCl2, with 0.1% BSA and the pH adjusted to 7.2 with NaOH. Concentration-dependent response curves were generated from 5 mM stock solutions prepared in DMSO (Sigma-Aldrich) and diluted in the buffer containing low Ca^2+ and incubated for 20 minutes at 29° C. in 5% CO2. Calcium entry was evoked with an addition of (in mM): 0.34 Na2HPO4, 4.2 NaHCO3, 0.44 KH2PO4, 0.41 MgSO4, 0.49 MgCl2-6H2O, 20 HEPES, 5.5 D-Glucose, 137 NaCl, 5.3 KCl, and 6 CaCl2, with 0.1% BSA and the pH adjusted to 7.2 with NaOH. A change in the Fluo-4 fluorescence signal was assessed using FLIPR^TETRA™ instrument (Molecular Devices, Sunnyvale, Calif.) for 3 minutes following the elevation of extracellular KCl using an illumination wavelength of 470-495 nm with emissions recorded at 515-575 nm.
Concentration-dependent response curves were obtained by comparing the fluorescence signal in the presence of compound and fitted with a logistic function (1) to obtain the concentration that inhibited 50% (IC50) of the RLU signal using OriginPro v.7.5 software (OriginLab, Northampton, Mass.).
To assess the quality of the FLIPR assays the Z-factor (2) was used to quantify the suitability of the assay conditions using the following equation: […]
Data are expressed as mean and standard deviation (SD).

[3] = biological target: T3, CaV3.2 (Homo sapiens, UniProt O95180); assay: High-throughput CaV3.2/Kir2.3 T-type FLIPR fluorescent assay; conditions: Fluo-4 FLIPR, closed or inactivated state not stated
T3 construct: expressed in transfected cells; host or cells: unnamed doxycycline-inducible cell line
How it was run: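 Doxycycline-induced cells loaded with Fluo-4, preincubated 20 min at 29°C with compound in 2 mM KCl (closed-state) or 7.6 mM KCl (inactivated-state) buffer, pH 7.4. Calcium entry triggered by 12 mM or 14.5 mM KCl respectively; fluorescence read 3 min by FLIPR, IC50 from logistic fit.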

T1 sequence (Q00975 whole entry): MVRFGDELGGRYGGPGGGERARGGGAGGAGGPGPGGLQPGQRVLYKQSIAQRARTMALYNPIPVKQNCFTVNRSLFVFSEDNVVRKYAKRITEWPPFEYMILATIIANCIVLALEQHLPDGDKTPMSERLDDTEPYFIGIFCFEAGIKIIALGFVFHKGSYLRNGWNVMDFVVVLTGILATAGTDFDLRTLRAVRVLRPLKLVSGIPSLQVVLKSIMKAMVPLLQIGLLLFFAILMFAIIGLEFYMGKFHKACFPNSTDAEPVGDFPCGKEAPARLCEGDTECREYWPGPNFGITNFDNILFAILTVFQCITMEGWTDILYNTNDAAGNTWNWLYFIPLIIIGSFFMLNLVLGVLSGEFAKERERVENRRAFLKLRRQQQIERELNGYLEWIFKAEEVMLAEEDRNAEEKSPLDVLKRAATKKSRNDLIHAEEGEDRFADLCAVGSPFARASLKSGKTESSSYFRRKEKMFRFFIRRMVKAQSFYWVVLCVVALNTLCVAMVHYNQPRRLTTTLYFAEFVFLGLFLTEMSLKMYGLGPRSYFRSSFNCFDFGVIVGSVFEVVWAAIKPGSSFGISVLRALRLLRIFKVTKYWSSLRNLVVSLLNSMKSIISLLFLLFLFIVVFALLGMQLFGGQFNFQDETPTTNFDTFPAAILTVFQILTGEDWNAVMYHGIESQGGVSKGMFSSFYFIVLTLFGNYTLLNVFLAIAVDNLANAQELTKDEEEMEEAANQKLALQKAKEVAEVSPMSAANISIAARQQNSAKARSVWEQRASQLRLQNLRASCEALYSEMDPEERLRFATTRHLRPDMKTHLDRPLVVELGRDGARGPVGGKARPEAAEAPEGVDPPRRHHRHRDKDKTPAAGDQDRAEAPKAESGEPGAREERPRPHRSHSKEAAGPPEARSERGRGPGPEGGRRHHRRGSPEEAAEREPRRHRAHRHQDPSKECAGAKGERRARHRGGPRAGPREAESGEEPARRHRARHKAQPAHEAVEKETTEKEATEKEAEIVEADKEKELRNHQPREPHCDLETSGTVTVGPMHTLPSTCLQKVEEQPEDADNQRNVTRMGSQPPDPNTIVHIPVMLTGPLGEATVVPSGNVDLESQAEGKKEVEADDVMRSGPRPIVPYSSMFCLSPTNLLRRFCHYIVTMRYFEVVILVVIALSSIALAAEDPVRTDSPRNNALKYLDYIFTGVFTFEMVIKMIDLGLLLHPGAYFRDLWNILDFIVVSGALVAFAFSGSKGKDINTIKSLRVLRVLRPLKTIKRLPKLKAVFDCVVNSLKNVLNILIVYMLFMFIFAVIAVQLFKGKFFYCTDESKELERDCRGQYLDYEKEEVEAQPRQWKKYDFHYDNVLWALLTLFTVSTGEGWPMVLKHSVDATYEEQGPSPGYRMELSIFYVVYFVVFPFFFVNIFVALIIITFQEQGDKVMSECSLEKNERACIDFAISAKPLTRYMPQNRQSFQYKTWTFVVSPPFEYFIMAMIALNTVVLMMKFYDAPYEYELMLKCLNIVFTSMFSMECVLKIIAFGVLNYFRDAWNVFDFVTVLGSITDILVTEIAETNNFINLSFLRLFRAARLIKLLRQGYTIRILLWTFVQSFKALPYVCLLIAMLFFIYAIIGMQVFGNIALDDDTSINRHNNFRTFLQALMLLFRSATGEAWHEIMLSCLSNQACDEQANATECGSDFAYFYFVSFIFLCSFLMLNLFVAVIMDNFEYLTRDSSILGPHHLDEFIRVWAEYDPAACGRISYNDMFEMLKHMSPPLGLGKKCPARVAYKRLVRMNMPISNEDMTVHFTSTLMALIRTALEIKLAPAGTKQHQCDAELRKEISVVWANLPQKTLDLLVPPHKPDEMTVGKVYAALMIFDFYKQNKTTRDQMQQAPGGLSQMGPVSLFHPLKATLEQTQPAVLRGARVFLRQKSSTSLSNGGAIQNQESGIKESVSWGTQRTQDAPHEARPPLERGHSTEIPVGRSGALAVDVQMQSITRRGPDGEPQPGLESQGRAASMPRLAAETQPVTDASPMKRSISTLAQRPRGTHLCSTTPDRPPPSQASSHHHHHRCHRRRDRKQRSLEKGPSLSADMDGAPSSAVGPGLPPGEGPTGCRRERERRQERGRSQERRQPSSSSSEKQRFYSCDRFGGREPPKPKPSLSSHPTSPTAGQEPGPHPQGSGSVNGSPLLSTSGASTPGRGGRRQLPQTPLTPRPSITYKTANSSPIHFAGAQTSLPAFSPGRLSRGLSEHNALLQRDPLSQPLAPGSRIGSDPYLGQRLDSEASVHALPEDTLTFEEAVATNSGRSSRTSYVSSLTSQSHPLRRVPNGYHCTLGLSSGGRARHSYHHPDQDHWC
T1 sequence (P54284 whole entry partner): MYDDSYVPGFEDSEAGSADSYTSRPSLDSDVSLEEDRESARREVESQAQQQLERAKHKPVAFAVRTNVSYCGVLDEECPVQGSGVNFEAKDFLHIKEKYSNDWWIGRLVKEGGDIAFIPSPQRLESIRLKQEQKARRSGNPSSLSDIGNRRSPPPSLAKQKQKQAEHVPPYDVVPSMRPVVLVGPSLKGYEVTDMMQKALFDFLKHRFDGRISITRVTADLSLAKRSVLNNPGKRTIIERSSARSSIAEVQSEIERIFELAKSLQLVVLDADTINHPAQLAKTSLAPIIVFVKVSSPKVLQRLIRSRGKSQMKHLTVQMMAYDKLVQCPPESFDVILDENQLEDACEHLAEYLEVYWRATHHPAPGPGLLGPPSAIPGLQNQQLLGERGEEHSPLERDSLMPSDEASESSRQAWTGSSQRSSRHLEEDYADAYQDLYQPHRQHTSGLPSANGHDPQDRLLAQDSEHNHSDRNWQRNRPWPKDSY
T1 sequence (P54289 25-946 partner limits assumed): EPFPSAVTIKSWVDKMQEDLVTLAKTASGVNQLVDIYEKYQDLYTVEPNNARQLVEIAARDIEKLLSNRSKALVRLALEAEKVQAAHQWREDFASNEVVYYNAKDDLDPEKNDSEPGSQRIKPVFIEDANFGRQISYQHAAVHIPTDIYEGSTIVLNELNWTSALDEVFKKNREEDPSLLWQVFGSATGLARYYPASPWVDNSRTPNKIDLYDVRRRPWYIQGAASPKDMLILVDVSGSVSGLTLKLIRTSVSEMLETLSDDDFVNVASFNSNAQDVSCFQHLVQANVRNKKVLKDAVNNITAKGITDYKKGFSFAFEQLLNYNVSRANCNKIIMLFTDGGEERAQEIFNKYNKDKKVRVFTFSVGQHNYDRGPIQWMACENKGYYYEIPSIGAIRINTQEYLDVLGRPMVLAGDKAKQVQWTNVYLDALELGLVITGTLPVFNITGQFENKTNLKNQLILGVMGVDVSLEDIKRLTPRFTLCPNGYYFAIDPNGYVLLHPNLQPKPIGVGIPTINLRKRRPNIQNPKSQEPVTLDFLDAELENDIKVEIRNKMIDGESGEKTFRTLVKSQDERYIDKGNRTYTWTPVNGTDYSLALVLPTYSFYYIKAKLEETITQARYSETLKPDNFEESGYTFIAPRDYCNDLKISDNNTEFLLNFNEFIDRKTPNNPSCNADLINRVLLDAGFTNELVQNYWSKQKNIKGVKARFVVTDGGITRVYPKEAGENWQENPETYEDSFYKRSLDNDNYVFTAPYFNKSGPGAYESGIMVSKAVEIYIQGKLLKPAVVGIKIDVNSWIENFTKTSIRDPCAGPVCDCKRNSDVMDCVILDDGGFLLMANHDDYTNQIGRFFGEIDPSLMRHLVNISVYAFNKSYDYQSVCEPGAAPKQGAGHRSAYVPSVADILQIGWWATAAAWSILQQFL
T1 sequence (P54289 947-1103 partner limits assumed): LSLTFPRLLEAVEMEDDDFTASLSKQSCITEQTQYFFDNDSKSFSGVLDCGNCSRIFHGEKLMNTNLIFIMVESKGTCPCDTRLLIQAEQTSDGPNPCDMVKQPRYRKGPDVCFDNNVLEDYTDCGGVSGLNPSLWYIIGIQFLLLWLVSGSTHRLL

SMILES | IC50 ([1]; Table 4) | IC50 ([2]; Table 4) | IC50 ([3]; Table 4) | IC50 ([1]; Table 5) | IC50 ([2]; Table 5) | IC50 ([3]; Table 5)
O=C(NCc1ccc(S(=O)(=O)c2cccc(C(F)(F)F)c2)cn1)c1ccc(C(F)(F)F)nc1 [Compound 90, 6-(trifluoromethyl)-N-((5-((3-(trifluoromethyl)phenyl)sulfonyl)pyridin-2-yl)methyl)nicotinamide] | 610 nM | 900 nM | 2070 nM |  |  | 
O=C(NCc1ccc(S(=O)(=O)c2cccc(C(F)(F)F)c2)cc1)c1cnc(C(F)(F)F)nc1 [Compound 8, 2-(trifluoromethyl)-N-(4-((3-(trifluoromethyl)phenyl)sulfonyl)benzyl)pyrimidine-5-carboxamide] | 510 nM | 2140 nM | 920 nM |  |  | 
CC(C)(CCNC(=O)[C@@H]1C[C@@H](C2CCCCC2)CN1)S(=O)(=O)c1cccc(C(F)(F)F)c1 [Compound 218, (2S,4S)-4-cyclohexyl-N-(3-methyl-3-((3-(trifluoromethyl)phenyl)sulfonyl)butyl)pyrrolidine-2-carboxamide] |  |  |  | 740 nM | 5640 nM | 3210 nM
CN(CCc1c[nH]c2ccc(F)cc12)C(=O)C(C)(C)S(=O)(=O)c1cccc(C(F)(F)F)c1 [Compound 135, N-(2-(5-fluoro-1H-indol-3-yl)ethyl)-N,2-dimethyl-2-((3-(trifluoromethyl)phenyl)sulfonyl)propanamide] |  |  |  | 1290 nM | 7950 nM | 5840 nM
O=C(NCc1ccc(S(=O)(=O)c2cccc(C(F)(F)F)c2)cn1)c1cn2cc(C(F)(F)F)ccc2n1 [Compound 103, 6-(trifluoromethyl)-N-((5-((3-(trifluoromethyl)phenyl)sulfonyl)pyridin-2-yl)methyl)imidazo[1,2-a]pyridine-2-carboxamide] | 830 nM | 2060 nM | 1250 nM |  |  | 
O=C(NCc1ccccc1S(=O)(=O)c1cccc(C(F)(F)F)c1)c1cc(F)cc(Cl)c1 [Compound 37, 3-chloro-5-fluoro-N-(2-((3-(trifluoromethyl)phenyl)sulfonyl)benzyl)benzamide] | 680 nM | 1420 nM | 1610 nM |  |  | 
O=C(NCc1ccc(S(=O)(=O)c2cccc(C(F)(F)F)c2)cc1)c1ccc(Cl)c(F)c1 [Compound 1, 4-chloro-3-fluoro-N-(4-((3-(trifluoromethyl)phenyl)sulfonyl)benzyl)benzamide] | 760 nM | 1290 nM | 620 nM |  |  | 
O=C(NCc1ccccc1S(=O)(=O)c1cccc(C(F)(F)F)c1)c1ccc(C(F)(F)F)cn1 [Compound 39, 5-(trifluoromethyl)-N-(2-((3-(trifluoromethyl)phenyl)sulfonyl)benzyl)picolinamide] | 740 nM | 1040 nM | 1250 nM |  |  | 
O=C(NCc1ccc(S(=O)(=O)c2cccc(C(F)(F)F)c2)cc1)c1cc(F)cc(Cl)c1 [Compound 2, 3-chloro-5-fluoro-N-(4-((3-(trifluoromethyl)phenyl)sulfonyl)benzyl)benzamide] | 950 nM | 1500 nM | 850 nM |  |  | 
CC(C)(C(=O)Nc1ccc(Oc2ccc(C(F)(F)F)cn2)nc1)S(=O)(=O)c1cccc(OC(F)(F)F)c1 [Compound 123, 2-methyl-2-((3-(trifluoromethoxy)phenyl)sulfonyl)-N-(6-((5-(trifluoromethyl)pyridin-2-yl)oxy)pyridin-3-yl)propanamide] |  |  |  | 920 nM | 4990 nM | 3010 nM
COc1cc(C(=O)NCc2ccc(S(=O)(=O)c3cccc(C(F)(F)F)c3)cc2)cc(Cl)n1 [Compound 14, 2-chloro-6-methoxy-N-(4-((3-(trifluoromethyl)phenyl)sulfonyl)benzyl)isonicotinamide] | 850 nM | 2380 nM | 430 nM |  |  | 
CC(C)(CCN1CCn2nc(C(F)(F)F)cc2C1=O)S(=O)(=O)c1cccc(C(F)(F)F)c1 [Compound 187, 5-(3-methyl-3-((3-(trifluoromethyl)phenyl)sulfonyl)butyl)-2-(trifluoromethyl)-6,7-dihydropyrazolo[1,5-a]pyrazin-4(5H)-one] |  |  |  | 420 nM | 5050 nM | 4310 nM
O=C(NCc1ccc(S(=O)(=O)c2cccc(C(F)(F)F)c2)cc1)c1ccnn1CC(F)(F)F [Compound 12, 1-(2,2,2-trifluoroethyl)-N-(4-((3-(trifluoromethyl)phenyl)sulfonyl)benzyl)-1H-pyrazole-5-carboxamide] | 630 nM | 2290 nM | 590 nM |  |  | 
O=C1c2ccc(C(F)(F)F)nc2CN1Cc1cccc(S(=O)(=O)c2cccc(C(F)(F)F)c2)c1 [Compound 57, 2-(trifluoromethyl)-6-(3-((3-(trifluoromethyl)phenyl)sulfonyl)benzyl)-6,7-dihydro-5H-pyrrolo[3,4-b]pyridin-5-one] | 260 nM | 6130 nM | 800 nM |  |  | 
CC(C)(C(=O)N1CCC(c2ccc(C(F)(F)F)cc2)CC1)S(=O)(=O)c1cccc(C(F)(F)F)c1 [Compound 136, 2-methyl-1-(4-(4-(trifluoromethyl)phenyl)piperidin-1-yl)-2-((3-(trifluoromethyl)phenyl)sulfonyl)propan-1-one] |  |  |  | 390 nM | 4400 nM | 2440 nM
CC(C)(C(=O)Nc1ccc(Oc2ccc(F)c(C(F)(F)F)c2)nc1)S(=O)(=O)c1cccc(OC(F)(F)F)c1 [Compound 119, N-(6-(4-fluoro-3-(trifluoromethyl)phenoxy)pyridin-3-yl)-2-methyl-2-((3-(trifluoromethoxy)phenyl)sulfonyl)propanamide] |  |  |  | 200 nM | 5800 nM | 4310 nM
O=C(NCc1ccc(S(=O)(=O)c2cccc(C(F)(F)F)c2)cc1)c1cn2cc(C(F)(F)F)ccc2n1 [Compound 13, 6-(trifluoromethyl)-N-(4-((3-(trifluoromethyl)phenyl)sulfonyl)benzyl)imidazo[1,2-a]pyridine-2-carboxamide] | 300 nM | 2020 nM | 740 nM |  |  | 
O=C(NCc1cccc(S(=O)(=O)c2cccc(C(F)(F)F)c2)c1)c1ccc(Cl)c(F)c1 [Compound 17, 4-chloro-3-fluoro-N-(3-((3-(trifluoromethyl)phenyl)sulfonyl)benzyl)benzamide] | 140 nM | 1630 nM | 940 nM |  |  | 
CC(C)(C(=O)NCc1ccc(S(=O)(=O)c2cccc(C(F)(F)F)c2)cc1)S(=O)(=O)c1cccc(C(F)(F)F)c1 [Compound 225, 2-methyl-2-((3-(trifluoromethyl)phenyl)sulfonyl)-N-(4-((3-(trifluoromethyl)phenyl)sulfonyl)benzyl)propanamide] |  |  |  | 100 nM | 1410 nM | 630 nM
O=C(NCc1cccc(S(=O)(=O)c2cccc(C(F)(F)F)c2)c1)c1ccc(C(F)(F)F)cn1 [Compound 20, 5-(trifluoromethyl)-N-(3-((3-(trifluoromethyl)phenyl)sulfonyl)benzyl)picolinamide] | 230 nM | 1810 nM | 930 nM |  |  | 
CC(C)S(=O)(=O)c1cc(C(F)(F)F)cnc1C(=O)NCc1ccc(S(=O)(=O)c2cccc(C(F)(F)F)c2)cn1 [Compound 96, 3-(isopropylsulfonyl)-5-(trifluoromethyl)-N-((5-((3-(trifluoromethyl)phenyl)sulfonyl)pyridin-2-yl)methyl)picolinamide] | 640 nM | 1560 nM | 2140 nM |  |  | 

— patent publication US20140113898A1, “BISARYLSULFONE AND DIALKYLARYLSULFONE COMPOUNDS AS CALCIUM CHANNEL BLOCKERS” (Zalicus Pharmaceuticals Ltd., priority 2010, published 2014)
